According to patent US6955908B1, “Organism associated with nongonococcal urethritis” (priority 2000, dated 2005):

Experiments:
[1] = cited from earlier work
Chlamydia = conditions: single dose (Martin); cited from earlier work
Ureaplasma = conditions: Stamm and colleagues; cited from earlier work
[2] = system: SPR (Spiky Rotating Cells); test: Treatment of patients with SPR infection; type: in vivo, human; conditions: oral treatment of patients
Text: My discovery of the novel SPR organism also provides for the treatment of SPR infections in male and female patients. The method involves first diagnosing the SPR infection, and then, upon obtaining a positive diagnosis, administering to the patient an SPR-inhibiting amount of an anti-SPR agent selected from the group consisting of itraconazole, ofloxacin, metronidazole.
One such drug is itraconazole, sold under the trade name SPORANOX®, available from Jansen Pharmaceuticals. The patient ingests one 200 mg tablet per day for three-four weeks.
The patient takes 500 mg twice per day for six weeks.
Yet another drug that is effective in treating SPR infection is ofloxacin, sold under the trade name FLOXIN®. The patient takes 400 mg twice per day for two weeks.

| SMILES | cases of NGU cured ([1]; Stamm and colleagues) [%] | overall effectiveness in NGU compared with Doxycycline ([1]; Stamm and colleagues) | efficacy in uncomplicated chlamydial urethritis compared with Doxycycline (Chlamydia) | Ureaplasma cases that responded (Ureaplasma) [%] | effectiveness in treating infection with SPR [2] | clinical efficacy in refractory cases ([1]; refractory cases, smaller series (Toth)) |
| --- | --- | --- | --- | --- | --- | --- |
| CC[C@H]1OC(=O)[C@H](C)[C@@H](O[C@H]2C[C@@](C)(OC)[C@@H](O)[C@H](C)O2)[C@H](C)[C@@H](O[C@@H]2O[C@H](C)C[C@H](N(C)C)[C@H]2O)[C@](C)(O)C[C@@H](C)CN(C)[C@H](C)[C@@H](O)[C@]1(C)O [Azithromycin] | 78 | overall as effective as Doxycyline | comparable to Doxycycline | 47 | – | – |
| Cc1ncc([N+](=O)[O-])n1CCO [metronidazole] | – | – | – | – | can be used to treat SPR infection | good clinical efficacy |
